Experimental data taken from the supplement of paper PMC12463676, “Small-molecule dissolution of stress granules by redox modulation benefits ALS models” (Nature Chemical Biology, 2025).

The targets below were run with NC(=O)CCCCC1CCSS1 [lipoamide] (assay: thermal stability z-score vs DMSO; higher = more thermally stabilized by treatment). Conditions: HeLa; lipoamide concentration 100 µM; arsenate co-treatment: 1 mM arsenate 1 h.
Procedure: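 Cellular thermal proteome profiling in HeLa cells. Cells were treated with 100 µM lipoamide for 1 h, with or without 1 mM arsenate for a further 1 h, then heated to ten temperatures (37-66.3 °C), and soluble protein was quantified by TMT mass spectrometry relative to 0.1% DMSO controls. The thermal stability score (sum of log2 fold changes minus the abundance score) was transformed to a z-score; mean of n = 3 experiments.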
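Further: each temperature applied for 3 min, abundance score taken as mean log2 fold change at the two lowest temperatures, z-score obtained by mean subtraction and division by SD.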

Sequence of UniProt Q96DB5 (Q96DB5 whole entry): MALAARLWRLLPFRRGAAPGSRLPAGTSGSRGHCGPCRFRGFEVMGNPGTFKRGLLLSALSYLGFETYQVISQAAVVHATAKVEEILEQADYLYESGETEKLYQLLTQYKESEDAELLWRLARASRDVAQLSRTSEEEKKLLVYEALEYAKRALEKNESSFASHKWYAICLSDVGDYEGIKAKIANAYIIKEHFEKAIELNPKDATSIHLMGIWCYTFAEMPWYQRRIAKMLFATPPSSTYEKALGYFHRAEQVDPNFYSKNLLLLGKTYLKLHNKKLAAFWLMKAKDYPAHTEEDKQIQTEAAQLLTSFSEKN
Sequence of UniProt P51610 (P51610 whole entry): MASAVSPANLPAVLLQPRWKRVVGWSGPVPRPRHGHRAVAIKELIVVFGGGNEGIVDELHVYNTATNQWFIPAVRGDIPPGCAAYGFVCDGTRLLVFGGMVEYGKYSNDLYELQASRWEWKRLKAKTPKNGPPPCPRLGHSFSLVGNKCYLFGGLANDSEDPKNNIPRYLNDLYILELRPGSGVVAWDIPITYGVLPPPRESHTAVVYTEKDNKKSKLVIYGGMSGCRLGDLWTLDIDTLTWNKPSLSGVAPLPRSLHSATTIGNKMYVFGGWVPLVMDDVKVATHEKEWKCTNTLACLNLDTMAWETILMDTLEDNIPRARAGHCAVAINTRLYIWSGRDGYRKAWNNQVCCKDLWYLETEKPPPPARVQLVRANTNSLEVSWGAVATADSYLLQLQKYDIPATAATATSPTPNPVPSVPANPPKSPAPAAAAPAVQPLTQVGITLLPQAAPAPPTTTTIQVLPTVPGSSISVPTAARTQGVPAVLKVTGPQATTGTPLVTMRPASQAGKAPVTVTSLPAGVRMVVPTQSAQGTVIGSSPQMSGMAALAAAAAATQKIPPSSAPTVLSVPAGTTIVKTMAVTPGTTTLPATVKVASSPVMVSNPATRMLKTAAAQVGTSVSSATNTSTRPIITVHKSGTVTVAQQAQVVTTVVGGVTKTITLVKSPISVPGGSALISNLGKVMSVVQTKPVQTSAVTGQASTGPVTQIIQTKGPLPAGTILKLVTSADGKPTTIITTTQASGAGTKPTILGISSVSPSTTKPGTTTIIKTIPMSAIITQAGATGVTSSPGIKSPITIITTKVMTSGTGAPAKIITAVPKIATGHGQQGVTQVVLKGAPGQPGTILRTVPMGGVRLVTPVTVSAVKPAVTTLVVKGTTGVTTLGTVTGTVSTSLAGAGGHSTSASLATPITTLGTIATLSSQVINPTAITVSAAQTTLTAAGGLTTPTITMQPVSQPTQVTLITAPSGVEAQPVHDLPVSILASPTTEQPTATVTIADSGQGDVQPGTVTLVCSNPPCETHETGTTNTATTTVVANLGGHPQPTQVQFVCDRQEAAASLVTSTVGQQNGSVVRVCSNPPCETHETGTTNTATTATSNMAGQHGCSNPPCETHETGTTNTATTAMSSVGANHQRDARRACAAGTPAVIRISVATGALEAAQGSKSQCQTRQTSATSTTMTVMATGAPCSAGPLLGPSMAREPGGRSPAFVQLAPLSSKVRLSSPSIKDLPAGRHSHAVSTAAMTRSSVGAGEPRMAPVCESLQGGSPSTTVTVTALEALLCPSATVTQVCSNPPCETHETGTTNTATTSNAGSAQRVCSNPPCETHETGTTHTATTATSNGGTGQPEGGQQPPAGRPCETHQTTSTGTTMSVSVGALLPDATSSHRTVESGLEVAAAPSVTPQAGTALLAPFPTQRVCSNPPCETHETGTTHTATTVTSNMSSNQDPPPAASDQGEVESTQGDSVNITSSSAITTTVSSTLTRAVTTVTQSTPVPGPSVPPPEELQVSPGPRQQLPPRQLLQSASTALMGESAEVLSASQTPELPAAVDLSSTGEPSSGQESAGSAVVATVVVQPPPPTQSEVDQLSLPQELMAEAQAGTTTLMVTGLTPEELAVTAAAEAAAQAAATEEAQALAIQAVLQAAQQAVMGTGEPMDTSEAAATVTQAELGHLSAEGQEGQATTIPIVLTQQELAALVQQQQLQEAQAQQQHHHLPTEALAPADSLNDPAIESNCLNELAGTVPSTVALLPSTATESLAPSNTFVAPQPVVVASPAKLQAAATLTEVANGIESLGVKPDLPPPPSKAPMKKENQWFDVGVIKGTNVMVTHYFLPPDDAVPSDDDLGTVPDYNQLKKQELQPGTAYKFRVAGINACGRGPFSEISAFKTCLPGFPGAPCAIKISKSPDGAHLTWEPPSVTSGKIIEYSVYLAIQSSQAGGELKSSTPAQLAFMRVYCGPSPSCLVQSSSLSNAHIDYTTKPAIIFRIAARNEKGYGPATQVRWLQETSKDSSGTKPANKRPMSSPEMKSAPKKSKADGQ
Sequence of UniProt P55010 (P55010 whole entry): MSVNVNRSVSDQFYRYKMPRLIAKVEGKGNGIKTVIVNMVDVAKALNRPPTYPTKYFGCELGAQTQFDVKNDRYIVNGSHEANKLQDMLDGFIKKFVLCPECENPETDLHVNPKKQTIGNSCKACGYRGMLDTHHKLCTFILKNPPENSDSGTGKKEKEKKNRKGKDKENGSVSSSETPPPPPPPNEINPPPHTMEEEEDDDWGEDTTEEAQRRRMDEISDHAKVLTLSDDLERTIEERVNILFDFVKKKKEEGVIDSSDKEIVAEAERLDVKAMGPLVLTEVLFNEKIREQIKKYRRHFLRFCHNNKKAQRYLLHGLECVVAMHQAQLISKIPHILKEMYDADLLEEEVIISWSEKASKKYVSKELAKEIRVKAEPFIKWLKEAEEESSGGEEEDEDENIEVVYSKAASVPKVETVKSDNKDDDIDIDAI
Sequence of UniProt Q9UGP4 (Q9UGP4 whole entry): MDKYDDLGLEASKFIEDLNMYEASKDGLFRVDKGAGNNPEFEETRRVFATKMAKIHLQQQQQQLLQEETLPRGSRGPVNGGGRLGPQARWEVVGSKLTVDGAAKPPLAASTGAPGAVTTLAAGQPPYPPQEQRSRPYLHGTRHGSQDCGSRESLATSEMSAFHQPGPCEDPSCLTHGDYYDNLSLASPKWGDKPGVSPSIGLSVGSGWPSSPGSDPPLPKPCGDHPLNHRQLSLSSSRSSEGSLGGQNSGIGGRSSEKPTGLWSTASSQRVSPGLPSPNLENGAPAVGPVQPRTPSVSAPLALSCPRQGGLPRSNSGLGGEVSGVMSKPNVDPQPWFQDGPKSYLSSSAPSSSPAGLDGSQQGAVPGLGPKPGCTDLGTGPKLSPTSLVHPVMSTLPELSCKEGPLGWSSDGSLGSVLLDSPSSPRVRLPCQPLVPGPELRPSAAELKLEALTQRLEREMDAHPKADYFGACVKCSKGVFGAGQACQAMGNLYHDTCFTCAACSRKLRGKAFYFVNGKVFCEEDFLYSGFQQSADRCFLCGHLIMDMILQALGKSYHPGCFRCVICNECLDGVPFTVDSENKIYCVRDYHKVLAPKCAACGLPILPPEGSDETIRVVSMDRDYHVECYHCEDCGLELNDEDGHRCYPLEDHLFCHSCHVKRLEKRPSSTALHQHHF
Sequence of UniProt O94886 (O94886 whole entry): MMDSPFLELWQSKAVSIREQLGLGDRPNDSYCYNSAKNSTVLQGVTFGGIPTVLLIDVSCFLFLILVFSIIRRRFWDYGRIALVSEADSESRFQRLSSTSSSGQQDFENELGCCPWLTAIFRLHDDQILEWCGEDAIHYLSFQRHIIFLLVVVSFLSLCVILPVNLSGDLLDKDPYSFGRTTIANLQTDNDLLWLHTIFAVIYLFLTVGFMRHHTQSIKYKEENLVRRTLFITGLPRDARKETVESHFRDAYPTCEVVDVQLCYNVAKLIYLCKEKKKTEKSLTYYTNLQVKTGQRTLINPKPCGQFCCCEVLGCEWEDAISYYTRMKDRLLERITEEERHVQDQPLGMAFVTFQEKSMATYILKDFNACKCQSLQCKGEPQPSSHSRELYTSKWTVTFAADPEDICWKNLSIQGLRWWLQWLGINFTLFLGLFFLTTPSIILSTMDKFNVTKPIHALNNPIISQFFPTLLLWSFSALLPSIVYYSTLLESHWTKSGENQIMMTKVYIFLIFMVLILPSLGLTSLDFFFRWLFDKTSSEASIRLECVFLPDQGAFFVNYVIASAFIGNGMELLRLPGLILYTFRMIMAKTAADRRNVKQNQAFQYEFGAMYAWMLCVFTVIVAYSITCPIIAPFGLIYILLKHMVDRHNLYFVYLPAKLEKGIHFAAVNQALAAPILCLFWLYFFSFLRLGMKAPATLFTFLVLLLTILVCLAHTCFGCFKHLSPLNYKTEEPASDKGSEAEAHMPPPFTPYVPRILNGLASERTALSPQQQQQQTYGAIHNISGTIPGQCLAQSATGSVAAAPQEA
Sequence of UniProt Q6P1Q0 (Q6P1Q0 whole entry): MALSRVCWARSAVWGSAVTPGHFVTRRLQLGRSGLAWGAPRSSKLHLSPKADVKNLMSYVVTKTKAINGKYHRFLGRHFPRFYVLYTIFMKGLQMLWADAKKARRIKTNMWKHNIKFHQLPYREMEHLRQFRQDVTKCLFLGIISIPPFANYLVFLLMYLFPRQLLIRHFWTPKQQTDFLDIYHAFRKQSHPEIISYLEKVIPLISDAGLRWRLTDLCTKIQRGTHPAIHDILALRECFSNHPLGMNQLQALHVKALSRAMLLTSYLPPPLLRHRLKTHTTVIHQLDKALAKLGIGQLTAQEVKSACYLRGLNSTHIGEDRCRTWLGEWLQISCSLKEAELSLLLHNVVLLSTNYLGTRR
Sequence of UniProt Q9BZV1 (Q9BZV1 whole entry): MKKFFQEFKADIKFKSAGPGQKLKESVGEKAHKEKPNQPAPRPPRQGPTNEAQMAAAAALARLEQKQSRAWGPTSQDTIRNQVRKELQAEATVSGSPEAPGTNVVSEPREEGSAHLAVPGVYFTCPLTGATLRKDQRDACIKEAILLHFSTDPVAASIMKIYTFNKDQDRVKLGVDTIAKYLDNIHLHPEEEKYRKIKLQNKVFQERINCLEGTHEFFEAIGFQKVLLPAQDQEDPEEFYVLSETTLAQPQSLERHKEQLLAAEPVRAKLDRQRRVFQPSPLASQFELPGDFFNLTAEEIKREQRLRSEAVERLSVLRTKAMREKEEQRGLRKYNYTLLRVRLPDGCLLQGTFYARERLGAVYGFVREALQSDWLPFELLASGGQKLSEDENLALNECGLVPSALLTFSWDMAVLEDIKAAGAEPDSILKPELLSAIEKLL

Target | thermal stability z-score
APPL2 (UniProt Q8NEU8) | 0.0353
PROSC (UniProt O94903) | -0.595
C12ORF10 (UniProt Q9HB07) | -0.0259
GEMIN8 (UniProt Q9NWZ8) | 0.0342
SSR3 (UniProt Q9UNL2) | -0.665
SESN2 (UniProt P58004) | -0.134
ARRB2 (UniProt P32121) | -0.153
KIAA1143 (UniProt Q96AT1) | -0.286
STK17A (UniProt Q9UEE5) | -0.0669
RING1 (UniProt Q06587) | -0.0364
RMDN1 (UniProt Q96DB5) | 0.0143
MIOS (UniProt Q9NXC5) | 0.0112
CEP85 (UniProt Q6P2H3) | -0.00805
CTNNB1 (UniProt P35222) | 0.545
OLA1 (UniProt Q9NTK5) | 0.522
TNFRSF1A (UniProt P19438) | -0.0438
ARRB1 (UniProt P49407) | 0.197
GNL3 (UniProt Q9BVP2) | -0.0335
PPP6R3 (UniProt Q5H9R7) | 1.14
TERF2 (UniProt Q15554) | -0.0516
RRP7A (UniProt Q9Y3A4) | 0.108
HCFC1 (UniProt P51610) | 1.26
CRELD1 (UniProt Q96HD1) | -0.249
FAM3C (UniProt Q92520) | -1.06
HNRNPD (UniProt Q14103) | 0.285
ANKRD52 (UniProt Q8NB46) | -0.69
CUL1 (UniProt Q13616) | 0.708
PHKG2 (UniProt P15735) | 0.926

Target | thermal stability z-score
COASY (UniProt Q13057) | -0.525
NUP160 (UniProt Q12769) | 0.198
ST3GAL4 (UniProt Q11206) | -0.112
LIMD1 (UniProt Q9UGP4) | -1.08
NOB1 (UniProt Q9ULX3) | -0.423
MARK1 (UniProt Q9P0L2) | -0.126
MRPS30 (UniProt Q9NP92) | -0.185
MRPS26 (UniProt Q9BYN8) | 0.609
NSUN4 (UniProt Q96CB9) | -0.26
SEMA3B (UniProt Q13214) | -1.02
NOCT (UniProt Q9UK39) | -0.088
MID1 (UniProt O15344) | -0.525
LANCL2 (UniProt Q9NS86) | -1.13
KDELC2 (UniProt Q7Z4H8) | -4.05
ZNF330 (UniProt Q9Y3S2) | -0.367
TPM2 (UniProt P07951) | 0.624
POLR1D | -0.0835
GADD45GIP1 (UniProt Q8TAE8) | 0.954
LETMD1 (UniProt Q6P1Q0) | 0.197
TMEM63A (UniProt O94886) | -0.739
UBXN6 (UniProt Q9BZV1) | -0.186
LUZP1 (UniProt Q86V48) | -0.424
ACADM (UniProt P11310) | 0.376
MCAT (UniProt Q8IVS2) | 0.313
KMT2D (UniProt O14686) | -0.298
CC2D1B (UniProt Q5T0F9) | -0.661
EIF5 (UniProt P55010) | 0.0938

Same assay, conditions: HeLa; lipoamide concentration 100 µM; arsenate co-treatment: none

Target | thermal stability z-score
APPL2 (UniProt Q8NEU8) | -0.132
PROSC (UniProt O94903) | 0.453
C12ORF10 (UniProt Q9HB07) | -1.16
GEMIN8 (UniProt Q9NWZ8) | -0.0734
SSR3 (UniProt Q9UNL2) | -0.443
SESN2 (UniProt P58004) | 0.162
ARRB2 (UniProt P32121) | -1.1
KIAA1143 (UniProt Q96AT1) | 0.26
STK17A (UniProt Q9UEE5) | -0.0755
RING1 (UniProt Q06587) | 0.0555
RMDN1 (UniProt Q96DB5) | -0.0301
MIOS (UniProt Q9NXC5) | 0.085
CEP85 (UniProt Q6P2H3) | 0.112
CTNNB1 (UniProt P35222) | 0.798
OLA1 (UniProt Q9NTK5) | 0.49
TNFRSF1A (UniProt P19438) | -0.00708
ARRB1 (UniProt P49407) | 0.543
GNL3 (UniProt Q9BVP2) | 0.0515
PPP6R3 (UniProt Q5H9R7) | 0.331
TERF2 (UniProt Q15554) | -0.042
RRP7A (UniProt Q9Y3A4) | -0.213
HCFC1 (UniProt P51610) | 1.15
CRELD1 (UniProt Q96HD1) | -0.193
FAM3C (UniProt Q92520) | -0.89
HNRNPD (UniProt Q14103) | -0.223
ANKRD52 (UniProt Q8NB46) | -0.0975
CUL1 (UniProt Q13616) | 0.275
PHKG2 (UniProt P15735) | 1.04

Target | thermal stability z-score
COASY (UniProt Q13057) | -0.09
NUP160 (UniProt Q12769) | 0.123
ST3GAL4 (UniProt Q11206) | 0.0672
LIMD1 (UniProt Q9UGP4) | -0.705
NOB1 (UniProt Q9ULX3) | -0.679
MARK1 (UniProt Q9P0L2) | -0.153
MRPS30 (UniProt Q9NP92) | -0.539
MRPS26 (UniProt Q9BYN8) | 0.375
NSUN4 (UniProt Q96CB9) | 0.337
SEMA3B (UniProt Q13214) | -1.61
NOCT (UniProt Q9UK39) | -0.117
MID1 (UniProt O15344) | -0.224
LANCL2 (UniProt Q9NS86) | -0.454
KDELC2 (UniProt Q7Z4H8) | -2.72
ZNF330 (UniProt Q9Y3S2) | -0.417
TPM2 (UniProt P07951) | 0.462
POLR1D | -0.377
GADD45GIP1 (UniProt Q8TAE8) | 0.379
LETMD1 (UniProt Q6P1Q0) | -0.0626
TMEM63A (UniProt O94886) | -0.0217
UBXN6 (UniProt Q9BZV1) | -0.134
LUZP1 (UniProt Q86V48) | -0.079
ACADM (UniProt P11310) | 0.186
MCAT (UniProt Q8IVS2) | 0.162
KMT2D (UniProt O14686) | -0.455
CC2D1B (UniProt Q5T0F9) | -0.8
EIF5 (UniProt P55010) | 0.375

What follows are targets tested with O=[As]([O-])(O)O.[K+] [potassium arsenate] in the same assay as above. Conditions: HeLa; arsenate concentration 1 mM.
Procedure: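 Cellular thermal proteome profiling in HeLa cells treated with 1 mM arsenate for 1 h (DMSO pretreatment), heated to ten temperatures (37-66.3 °C). Soluble protein was quantified by TMT mass spectrometry relative to DMSO controls; the thermal stability score was transformed to a z-score; mean of n = 3 experiments.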

Target | thermal stability z-score
APPL2 (UniProt Q8NEU8) | -0.0173
PROSC (UniProt O94903) | -1.14
C12ORF10 (UniProt Q9HB07) | 0.0961
GEMIN8 (UniProt Q9NWZ8) | -0.0475
SSR3 (UniProt Q9UNL2) | 0.0314
SESN2 (UniProt P58004) | -0.132
ARRB2 (UniProt P32121) | 0.28
KIAA1143 (UniProt Q96AT1) | -0.385
STK17A (UniProt Q9UEE5) | 0.0862
RING1 (UniProt Q06587) | -0.0985
RMDN1 (UniProt Q96DB5) | 0.171
MIOS (UniProt Q9NXC5) | -0.469
CEP85 (UniProt Q6P2H3) | -0.118
CTNNB1 (UniProt P35222) | 0.308
OLA1 (UniProt Q9NTK5) | -0.463
TNFRSF1A (UniProt P19438) | 0.164
ARRB1 (UniProt P49407) | 0.262
GNL3 (UniProt Q9BVP2) | -0.437
PPP6R3 (UniProt Q5H9R7) | 0.262
TERF2 (UniProt Q15554) | 0.1
RRP7A (UniProt Q9Y3A4) | -0.216
HCFC1 (UniProt P51610) | -0.101
CRELD1 (UniProt Q96HD1) | -0.113
FAM3C (UniProt Q92520) | 0.805
HNRNPD (UniProt Q14103) | -0.562
ANKRD52 (UniProt Q8NB46) | -0.372
CUL1 (UniProt Q13616) | -0.108
PHKG2 (UniProt P15735) | 0.714

Target | thermal stability z-score
COASY (UniProt Q13057) | 0.944
NUP160 (UniProt Q12769) | 1.01
ST3GAL4 (UniProt Q11206) | 0.726
LIMD1 (UniProt Q9UGP4) | -5.26
NOB1 (UniProt Q9ULX3) | -0.873
MARK1 (UniProt Q9P0L2) | 0.249
MRPS30 (UniProt Q9NP92) | -0.147
MRPS26 (UniProt Q9BYN8) | 0.123
NSUN4 (UniProt Q96CB9) | -0.318
SEMA3B (UniProt Q13214) | 0.997
NOCT (UniProt Q9UK39) | 0.112
MID1 (UniProt O15344) | -0.963
LANCL2 (UniProt Q9NS86) | -0.393
KDELC2 (UniProt Q7Z4H8) | 0.334
ZNF330 (UniProt Q9Y3S2) | -0.558
TPM2 (UniProt P07951) | -0.068
POLR1D | -1.73
GADD45GIP1 (UniProt Q8TAE8) | 0.432
LETMD1 (UniProt Q6P1Q0) | 0.0642
TMEM63A (UniProt O94886) | -0.159
UBXN6 (UniProt Q9BZV1) | -0.12
LUZP1 (UniProt Q86V48) | -0.191
ACADM (UniProt P11310) | -1.07
MCAT (UniProt Q8IVS2) | 1.17
KMT2D (UniProt O14686) | -0.661
CC2D1B (UniProt Q5T0F9) | -0.125
EIF5 (UniProt P55010) | -1.08
